Results on six molecules are retold here after PubChem BioAssay AID1259407 (Chemical Carcinogenesis Research Information System (CCRIS), 2018).

For the data set, the system named is CCRIS mutagenicity, Ames/micronucleus/aberration tests. Kind of data set: CCRIS mutagenicity studies.
Where [1] appears, read: Test System: AMES SALMONELLA TYPHIMURIUM, Strain/Indicator: TA98, Metabolic Activation: NONE, Method: PREINCUBATION
The mark [2] stands for this setting: Test System: AMES SALMONELLA TYPHIMURIUM, Strain/Indicator: TA100, Metabolic Activation: NONE, Method: PREINCUBATION
Setting [3] is: Test System: AMES SALMONELLA TYPHIMURIUM, Strain/Indicator: TA1535, Metabolic Activation: NONE, Method: PREINCUBATION
The mark [4] stands for this setting: Test System: AMES SALMONELLA TYPHIMURIUM, Strain/Indicator: TA1537, Metabolic Activation: NONE, Method: PREINCUBATION
Setting [5] is: Test System: AMES SALMONELLA TYPHIMURIUM, Strain/Indicator: TA1538, Metabolic Activation: NONE, Method: PREINCUBATION
The mark [6] stands for this setting: Test System: AMES SALMONELLA TYPHIMURIUM, Strain/Indicator: TA98, Metabolic Activation: NONE, Method: STANDARD PLATE.
Setting [7] is: Test System: AMES SALMONELLA TYPHIMURIUM, Strain/Indicator: TA98, Metabolic Activation: RAT, LIVER, S-9, AROCLOR 1254, Method: STANDARD PLATE.
[8] abbreviates: Test System: AMES SALMONELLA TYPHIMURIUM, Strain/Indicator: TA100, Metabolic Activation: NONE, Method: STANDARD PLATE.
Where [9] appears, read: Test System: AMES SALMONELLA TYPHIMURIUM, Strain/Indicator: TA100, Metabolic Activation: RAT, LIVER, S-9, AROCLOR 1254, Method: STANDARD PLATE.
The mark [10] stands for this setting: Test System: AMES SALMONELLA TYPHIMURIUM, Strain/Indicator: TA1535, Metabolic Activation: NONE, Method: STANDARD PLATE.
Setting [11] is: Test System: AMES SALMONELLA TYPHIMURIUM, Strain/Indicator: TA1537, Metabolic Activation: NONE, Method: STANDARD PLATE.
The mark [12] stands for this setting: Test System: AMES SALMONELLA TYPHIMURIUM, Strain/Indicator: TA98, Metabolic Activation: RAT, LIVER, S-9, AROCLOR 1254, Method: PREINCUBATION
Where [13] appears, read: Test System: AMES SALMONELLA TYPHIMURIUM, Strain/Indicator: TA100, Metabolic Activation: RAT, LIVER, S-9, AROCLOR 1254, Method: PREINCUBATION
[14] abbreviates: Test System: AMES SALMONELLA TYPHIMURIUM, Strain/Indicator: TA1535, Metabolic Activation: RAT, LIVER, S-9, AROCLOR 1254, Method: PREINCUBATION
Setting [15] is: Test System: AMES SALMONELLA TYPHIMURIUM, Strain/Indicator: TA1537, Metabolic Activation: RAT, LIVER, S-9, AROCLOR 1254, Method: PREINCUBATION

Active and inactive are the calls of the source. The rule behind the calls is not given here.

With `N#Cc1ccccc1C#N`, the mutagenic call runs as follows: under setting [1], “inactive; negative”; (Test System: AMES SALMONELLA TYPHIMURIUM, Strain/Indicator: TA98, Metabolic Activation: RAT LIVER S-9, PHENOBARBITAL AND BETA-NAPHTHOFLAVONE, Method: PREINCUBATION) “inactive; negative”; under setting [2], “inactive; negative”; (Test System: AMES SALMONELLA TYPHIMURIUM, Strain/Indicator: TA100, Metabolic Activation: RAT LIVER S-9, PHENOBARBITAL AND BETA-NAPHTHOFLAVONE, Method: PREINCUBATION) “inactive; negative”; under setting [3], “inactive; negative”; (Test System: AMES SALMONELLA TYPHIMURIUM, Strain/Indicator: TA1535, Metabolic Activation: RAT LIVER S-9, PHENOBARBITAL AND BETA-NAPHTHOFLAVONE, Method: PREINCUBATION) “inactive; negative”. In addition, the mutagenic call was “inactive; negative” under setting [4]; “inactive; negative” (Test System: AMES SALMONELLA TYPHIMURIUM, Strain/Indicator: TA1537, Metabolic Activation: RAT LIVER S-9, PHENOBARBITAL AND BETA-NAPHTHOFLAVONE, Method: PREINCUBATION); “inactive; negative” under setting [5]; “inactive; negative” (Test System: AMES SALMONELLA TYPHIMURIUM, Strain/Indicator: TA1538, Metabolic Activation: RAT LIVER S-9, PHENOBARBITAL AND BETA-NAPHTHOFLAVONE, Method: PREINCUBATION); “inactive; negative” (Test System: E.COLI, Strain/Indicator: WP2UVRA, Metabolic Activation: NONE, Method: PREINCUBATION); “inactive; negative” (Test System: E.COLI, Strain/Indicator: WP2UVRA, Metabolic Activation: RAT LIVER S-9, PHENOBARBITAL AND BETA-NAPHTHOFLAVONE, Method: PREINCUBATION).

Regarding `CCOc1ccccc1OCC1CNCCO1` (stereo not given), the mutagenic call runs as follows: under setting [6], “inactive; negative”; under setting [7], “inactive; negative”; under setting [8], “inactive; negative”; under setting [9], “inactive; negative”; under setting [10], “inactive; negative”; (Test System: AMES SALMONELLA TYPHIMURIUM, Strain/Indicator: TA1535, Metabolic Activation: RAT, LIVER, S-9, AROCLOR 1254, Method: STANDARD PLATE) “inactive; negative”. The mutagenic call is, setting by setting: under setting [11], “inactive; negative”; (Test System: AMES SALMONELLA TYPHIMURIUM, Strain/Indicator: TA1537, Metabolic Activation: RAT, LIVER, S-9, AROCLOR 1254, Method: STANDARD PLATE) “inactive; negative”.

Consider `Nc1nc(=O)n([C@H]2C[C@H](O)[C@@H](CO)O2)cc1I`, for which the mutagenic call runs as follows: (Test System: AMES SALMONELLA TYPHIMURIUM, Strain/Indicator: TA97, Metabolic Activation: NONE, Method: PREINCUBATION) “inactive; negative”; (Test System: AMES SALMONELLA TYPHIMURIUM, Strain/Indicator: TA97, Metabolic Activation: RAT, LIVER, S-9, AROCLOR 1254, Method: PREINCUBATION) “inactive; negative”; under setting [1], “inactive; negative”; under setting [12], “inactive; negative”; under setting [2], “inactive; negative”; under setting [13], “inactive; negative”. For the same molecule, the mutagenic call runs as follows: (Test System: AMES SALMONELLA TYPHIMURIUM, Strain/Indicator: TA102, Metabolic Activation: NONE, Method: PREINCUBATION) “inactive; negative”; (Test System: AMES SALMONELLA TYPHIMURIUM, Strain/Indicator: TA102, Metabolic Activation: RAT, LIVER, S-9, AROCLOR 1254, Method: PREINCUBATION) “inactive; negative”; (Test System: AMES SALMONELLA TYPHIMURIUM, Strain/Indicator: TA104, Metabolic Activation: NONE, Method: PREINCUBATION) “inactive; negative”; (Test System: AMES SALMONELLA TYPHIMURIUM, Strain/Indicator: TA104, Metabolic Activation: RAT, LIVER, S-9, AROCLOR 1254, Method: PREINCUBATION) “inactive; negative”; under setting [3], “inactive; negative”; under setting [14], “inactive; negative”. The mutagenic call by setting is: under setting [4], “inactive; negative”; under setting [15], “inactive; negative”; under setting [5], “inactive; negative”; (Test System: AMES SALMONELLA TYPHIMURIUM, Strain/Indicator: TA1538, Metabolic Activation: RAT, LIVER, S-9, AROCLOR 1254, Method: PREINCUBATION) “inactive; negative”; (Test System: CHINESE HAMSTER V-79, Strain/Indicator: V-79/8-AZAGUANINE, Metabolic Activation: NONE) “inactive; negative”.

For the molecule `Brc1ccccc1-c1ccccc1`, the mutagenic call runs as follows: (Test System: AMES SALMONELLA TYPHIMURIUM, Strain/Indicator: TA98, Metabolic Activation: HAMSTER, LIVER, S-9, AROCLOR 1254, Method: PREINCUBATION) “inactive; negative”; under setting [1], “inactive; negative”; under setting [12], “inactive; negative”; (Test System: AMES SALMONELLA TYPHIMURIUM, Strain/Indicator: TA100, Metabolic Activation: HAMSTER, LIVER, S-9, AROCLOR 1254, Method: PREINCUBATION) “inactive; negative”; under setting [2], “inactive; negative”; under setting [13], “inactive; negative”. Further, the mutagenic call is “inactive; negative” (Test System: AMES SALMONELLA TYPHIMURIUM, Strain/Indicator: TA1535, Metabolic Activation: HAMSTER, LIVER, S-9, AROCLOR 1254, Method: PREINCUBATION); “inactive; negative” under setting [3]; “inactive; negative” under setting [14]; “inactive; negative” (Test System: AMES SALMONELLA TYPHIMURIUM, Strain/Indicator: TA1537, Metabolic Activation: HAMSTER, LIVER, S-9, AROCLOR 1254, Method: PREINCUBATION); “inactive; negative” under setting [4]; “inactive; negative” under setting [15].

Take `S=P(N1CC1)(N1CC1)N1CC1`: the mutagenic call is “inactive; negative” (Test System: AMES SALMONELLA TYPHIMURIUM, Strain/Indicator: TA98, Metabolic Activation: HAMSTER, LIVER, S-9, AROCLOR 1254 (30%), Method: PREINCUBATION); “inactive; negative” under setting [1]; “inactive; negative” under setting [6]; “inactive; negative” (Test System: AMES SALMONELLA TYPHIMURIUM, Strain/Indicator: TA98, Metabolic Activation: RAT, LIVER, S-9, AROCLOR 1254 (30%), Method: PREINCUBATION); “active; positive” (Test System: AMES SALMONELLA TYPHIMURIUM, Strain/Indicator: TA100, Metabolic Activation: HAMSTER, LIVER, S-9, AROCLOR 1254 (30%), Method: PREINCUBATION); “active; positive” under setting [2]. Further, the mutagenic call was “active; positive” under setting [8]; “active; positive” (Test System: AMES SALMONELLA TYPHIMURIUM, Strain/Indicator: TA100, Metabolic Activation: RAT, LIVER, S-9, AROCLOR 1254 (30%), Method: PREINCUBATION); “active; positive” under setting [10]; “inactive; negative” under setting [11]; “inactive; negative” (Test System: CHINESE HAMSTER V-79, Strain/Indicator: V-79/6-THIOGUANINE, Metabolic Activation: NONE, Method: FLASK ASSAY); “active; positive” (Test System: E. COLI, Strain/Indicator: WP2 (HCR), Metabolic Activation: NONE, Method: STANDARD PLATE).

For the molecule `CC1(OO)c2ccccc2-c2ccccc21`, the mutagenic call runs as follows: under setting [6], “active; positive”; under setting [7], “active; positive”; under setting [8], “active; positive”; under setting [9], “active; positive”.
